Holding throughout (experiment): relative viability (nuclei count vs DMSO), 5 days (fraction); higher = more cells survive
Compound in the test “JZL-184 + Vorinostat”: C1CN(CCC1C(C2=CC3=C(C=C2)OCO3)(C4=CC5=C(C=C4)OCO5)O)C(=O)OC6=CC=C(C=C6)[N+](=O)[O-] [JZL-184] + O=C(CCCCCCC(=O)Nc1ccccc1)NO [Vorinostat] (partner 1 µM)
The method in brief:
(§1)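 Medians of duplicate plates are given as relative viability. That measure is the nuclei count in treated wells divided by the count in vehicle wells. Counts were taken on 4× images of lung cancer cell lines in 1536-well plates, 5 days after pin-tool dosing the day after seeding with one drug alone or a fixed anchor-drug dose plus five library-drug doses (not always all listed) in √10 steps.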

Compound in the test “JZL-184 + Pictilisib”: C1CN(CCC1C(C2=CC3=C(C=C2)OCO3)(C4=CC5=C(C=C4)OCO5)O)C(=O)OC6=CC=C(C=C6)[N+](=O)[O-] [JZL-184] + CS(=O)(=O)N1CCN(Cc2cc3nc(-c4cccc5[nH]ncc45)nc(N4CCOCC4)c3s2)CC1 [Pictilisib] (partner 1 µM)
The method in brief: as §1

Compound in the test “JZL-184 + Tozasertib”: C1CN(CCC1C(C2=CC3=C(C=C2)OCO3)(C4=CC5=C(C=C4)OCO5)O)C(=O)OC6=CC=C(C=C6)[N+](=O)[O-] [JZL-184] + Cc1cc(Nc2cc(N3CCN(C)CC3)nc(Sc3ccc(NC(=O)C4CC4)cc3)n2)n[nH]1 [Tozasertib] (partner 0.1 µM)
The method in brief: as §1

Compound in the test “JZL-184 + Alpelisib”: C1CN(CCC1C(C2=CC3=C(C=C2)OCO3)(C4=CC5=C(C=C4)OCO5)O)C(=O)OC6=CC=C(C=C6)[N+](=O)[O-] [JZL-184] + Cc1nc(NC(=O)N2CCC[C@H]2C(N)=O)sc1-c1ccnc(C(C)(C)C(F)(F)F)c1 [Alpelisib] (partner 2 µM)
The method in brief: as §1

Compound in the test “JZL-184 + Phenformin”: C1CN(CCC1C(C2=CC3=C(C=C2)OCO3)(C4=CC5=C(C=C4)OCO5)O)C(=O)OC6=CC=C(C=C6)[N+](=O)[O-] [JZL-184] + N=C(N)NC(=N)NCCc1ccccc1 [Phenformin] (partner 250 µM)
In outline: as §1

These results are taken from the supplement of paper PMC10307832.

As for HCC-44, the relative viability in the test with JZL-184 + Vorinostat (first compound 0.04 µM) was 1.28; in the test with JZL-184 + Vorinostat (first compound 0.4 µM), 1.05; with JZL-184 + Vorinostat (first compound 1.265 µM) it was 1.13; with JZL-184 + Vorinostat (first compound 4 µM), 1.06; with JZL-184 + Pictilisib (first compound 0.04 µM), 0.592; with JZL-184 + Pictilisib (first compound 0.4 µM) it was 0.549. For the same cell line, the relative viability with JZL-184 + Pictilisib (first compound 1.265 µM) was determined as 0.622; in the test with JZL-184 + Pictilisib (first compound 4 µM), 0.528; with JZL-184 + Tozasertib (first compound 0.04 µM) it was 1.27; with JZL-184 + Tozasertib (first compound 0.4 µM) it was 0.805; with JZL-184 + Tozasertib (first compound 1.265 µM) it was 1.26; with JZL-184 + Tozasertib (first compound 4 µM), 0.983. Moreover, the relative viability amounted to 0.671 with JZL-184 + Alpelisib (first compound 0.04 µM); 0.8 with JZL-184 + Alpelisib (first compound 0.4 µM); 0.749 in the test with JZL-184 + Alpelisib (first compound 1.265 µM); 0.74 with JZL-184 + Alpelisib (first compound 4 µM); 0.231 with JZL-184 + Phenformin (first compound 0.04 µM); 0.104 with JZL-184 + Phenformin (first compound 0.4 µM). Moreover, the values for the relative viability with JZL-184 + Phenformin (first compound 1.265 µM) and in the test with JZL-184 + Phenformin (first compound 4 µM) were 0.245 and 0.185, respectively.

Take HCC-78: the relative viability with JZL-184 + Vorinostat (first compound 0.04 µM) is 0.405; in the test with JZL-184 + Vorinostat (first compound 1.265 µM) it was 0.492; in the test with JZL-184 + Vorinostat (first compound 4 µM), 0.378; with JZL-184 + Pictilisib (first compound 0.04 µM), 0.204; with JZL-184 + Pictilisib (first compound 0.4 µM), 0.188; with JZL-184 + Pictilisib (first compound 1.265 µM), 0.248. Further, the relative viability in the test with JZL-184 + Pictilisib (first compound 4 µM) worked out at 0.2; with JZL-184 + Tozasertib (first compound 0.04 µM) it was 0.402; in the test with JZL-184 + Tozasertib (first compound 0.4 µM) it was 0.413; in the test with JZL-184 + Tozasertib (first compound 1.265 µM), 0.388; with JZL-184 + Tozasertib (first compound 4 µM), 0.318; with JZL-184 + Alpelisib (first compound 0.04 µM), 0.325. For the same cell line, the relative viability was 0.317 in the test with JZL-184 + Alpelisib (first compound 0.4 µM); 0.375 in the test with JZL-184 + Alpelisib (first compound 1.265 µM); 0.315 with JZL-184 + Alpelisib (first compound 4 µM); 0.63 in the test with JZL-184 + Phenformin (first compound 0.04 µM); 0.611 with JZL-184 + Phenformin (first compound 0.4 µM); 0.754 in the test with JZL-184 + Phenformin (first compound 1.265 µM). Moreover, the relative viability in the test with JZL-184 + Phenformin (first compound 4 µM) was determined as 0.752.

For HCC-366, the relative viability came to 0.408 in the test with JZL-184 + Vorinostat (first compound 0.04 µM); 0.242 in the test with JZL-184 + Vorinostat (first compound 0.4 µM); 0.361 with JZL-184 + Vorinostat (first compound 1.265 µM); 0.313 in the test with JZL-184 + Vorinostat (first compound 4 µM); 0.158 in the test with JZL-184 + Pictilisib (first compound 0.04 µM); 0.179 in the test with JZL-184 + Pictilisib (first compound 0.4 µM). Also, the relative viability stood at 0.155 with JZL-184 + Pictilisib (first compound 1.265 µM); 0.113 with JZL-184 + Pictilisib (first compound 4 µM); 0.133 with JZL-184 + Tozasertib (first compound 0.04 µM); 0.508 with JZL-184 + Tozasertib (first compound 0.4 µM); 0.109 with JZL-184 + Tozasertib (first compound 1.265 µM); 0.0909 with JZL-184 + Tozasertib (first compound 4 µM). The relative viability with JZL-184 + Alpelisib (first compound 0.04 µM) stood at 0.355; with JZL-184 + Alpelisib (first compound 0.4 µM), 0.436; in the test with JZL-184 + Alpelisib (first compound 1.265 µM), 0.506; with JZL-184 + Alpelisib (first compound 4 µM) it was 0.358; in the test with JZL-184 + Phenformin (first compound 0.04 µM), 0.664; in the test with JZL-184 + Phenformin (first compound 0.4 µM), 0.553. Besides, the relative viability with JZL-184 + Phenformin (first compound 1.265 µM) turned out to be 0.653; with JZL-184 + Phenformin (first compound 4 µM), 0.624.

On to HCC-827, for which the relative viability worked out at 0.942 with JZL-184 + Vorinostat (first compound 0.04 µM); 0.244 in the test with JZL-184 + Vorinostat (first compound 0.4 µM); 0.577 with JZL-184 + Vorinostat (first compound 1.265 µM); 0.839 with JZL-184 + Vorinostat (first compound 4 µM); 0.915 with JZL-184 + Pictilisib (first compound 0.04 µM); 0.908 in the test with JZL-184 + Pictilisib (first compound 0.4 µM). The relative viability was 1.01 in the test with JZL-184 + Pictilisib (first compound 1.265 µM); 1.06 with JZL-184 + Pictilisib (first compound 4 µM); 0.421 with JZL-184 + Tozasertib (first compound 0.04 µM); 0.383 with JZL-184 + Tozasertib (first compound 0.4 µM); 0.449 with JZL-184 + Tozasertib (first compound 1.265 µM); 0.411 with JZL-184 + Tozasertib (first compound 4 µM). Further, the relative viability was found to be 0.724 with JZL-184 + Alpelisib (first compound 0.04 µM); 0.927 with JZL-184 + Alpelisib (first compound 0.4 µM); 0.981 in the test with JZL-184 + Alpelisib (first compound 1.265 µM); 0.952 in the test with JZL-184 + Alpelisib (first compound 4 µM); 0.424 with JZL-184 + Phenformin (first compound 0.04 µM); 0.376 with JZL-184 + Phenformin (first compound 0.4 µM). The values for the relative viability with JZL-184 + Phenformin (first compound 1.265 µM) and in the test with JZL-184 + Phenformin (first compound 4 µM) were 0.424 and 0.379, respectively.

In the case of HOP-62, the relative viability in the test with JZL-184 + Vorinostat (first compound 0.04 µM) is 0.659; with JZL-184 + Vorinostat (first compound 0.4 µM) it was 0.601; in the test with JZL-184 + Vorinostat (first compound 1.265 µM), 0.706; in the test with JZL-184 + Vorinostat (first compound 4 µM), 0.612; in the test with JZL-184 + Pictilisib (first compound 0.04 µM) it was 0.69; with JZL-184 + Pictilisib (first compound 0.4 µM), 0.822. Besides, the relative viability with JZL-184 + Pictilisib (first compound 1.265 µM) came out at 0.901; in the test with JZL-184 + Pictilisib (first compound 4 µM) it was 0.94; with JZL-184 + Tozasertib (first compound 0.04 µM), 0.356; with JZL-184 + Tozasertib (first compound 0.4 µM) it was 0.402; in the test with JZL-184 + Tozasertib (first compound 1.265 µM), 0.366; with JZL-184 + Tozasertib (first compound 4 µM), 0.335. Moreover, the relative viability came to 1.13 with JZL-184 + Alpelisib (first compound 0.04 µM); 1.05 with JZL-184 + Alpelisib (first compound 0.4 µM); 1.05 in the test with JZL-184 + Alpelisib (first compound 1.265 µM); 0.96 with JZL-184 + Alpelisib (first compound 4 µM); 0.787 in the test with JZL-184 + Phenformin (first compound 0.04 µM); 0.639 in the test with JZL-184 + Phenformin (first compound 0.4 µM). Moreover, the relative viability stood at 0.705 with JZL-184 + Phenformin (first compound 1.265 µM) and 0.683 with JZL-184 + Phenformin (first compound 4 µM).

IA-LM: the relative viability in the test with JZL-184 + Vorinostat (first compound 0.04 µM) was found to be 0.893; with JZL-184 + Vorinostat (first compound 0.4 µM), 0.988; with JZL-184 + Vorinostat (first compound 1.265 µM) it was 0.965; with JZL-184 + Vorinostat (first compound 4 µM), 0.989; with JZL-184 + Pictilisib (first compound 0.04 µM), 0.456; with JZL-184 + Pictilisib (first compound 0.4 µM), 0.361. The relative viability is 0.376 with JZL-184 + Pictilisib (first compound 1.265 µM); 0.312 with JZL-184 + Pictilisib (first compound 4 µM); 0.991 in the test with JZL-184 + Alpelisib (first compound 0.04 µM); 0.526 with JZL-184 + Alpelisib (first compound 0.4 µM); 0.886 with JZL-184 + Alpelisib (first compound 1.265 µM); 0.744 in the test with JZL-184 + Alpelisib (first compound 4 µM).

As to LC-2-ad, the relative viability was 0.774 with JZL-184 + Vorinostat (first compound 0.04 µM); 0.67 with JZL-184 + Vorinostat (first compound 0.4 µM); 0.676 in the test with JZL-184 + Vorinostat (first compound 1.265 µM); 0.669 with JZL-184 + Vorinostat (first compound 4 µM); 0.546 with JZL-184 + Pictilisib (first compound 0.04 µM); 0.388 with JZL-184 + Pictilisib (first compound 0.4 µM). In addition, the relative viability stood at 0.658 with JZL-184 + Pictilisib (first compound 1.265 µM); 0.461 in the test with JZL-184 + Pictilisib (first compound 4 µM); 0.451 in the test with JZL-184 + Tozasertib (first compound 0.04 µM); 0.429 with JZL-184 + Tozasertib (first compound 0.4 µM); 0.511 in the test with JZL-184 + Tozasertib (first compound 1.265 µM); 0.385 with JZL-184 + Tozasertib (first compound 4 µM). In addition, the relative viability with JZL-184 + Alpelisib (first compound 0.04 µM) came out at 0.858; in the test with JZL-184 + Alpelisib (first compound 0.4 µM), 0.822; with JZL-184 + Alpelisib (first compound 1.265 µM), 0.95; in the test with JZL-184 + Alpelisib (first compound 4 µM), 0.839; with JZL-184 + Phenformin (first compound 0.04 µM) it was 0.639; in the test with JZL-184 + Phenformin (first compound 0.4 µM), 0.549. In addition, the results for the relative viability with JZL-184 + Phenformin (first compound 1.265 µM) and with JZL-184 + Phenformin (first compound 4 µM) were 0.67 and 0.538, respectively.
